Key:
[1] = system: SLVL (B-Cell Non-Hodgkin's Lymphoma); assay: Bliss excess, mean over the matrix (fraction); higher = more synergy
Summary of the method: (§1)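 Bliss excess equals the observed combination effect minus the expected value EA + EB − EA·EB, where EA and EB are the effects of each agent alone. Combination Emax is the second-highest inhibition within the matrix. Inhibition was scaled from CellTiter-Glo 2.0 luminescence, with 0 set by vehicle wells and 1 by blank wells, after 72 hours of two-drug dosing of cells plated in 1536-well plates.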

[2] = system: ETK-1 (Biliary Tract Carcinoma); assay: as above
Summary of the method: as §1

[3] = system: NCI-H1688 (Small Cell Lung Carcinoma); assay: as above
Summary of the method: as §1

[4] = system: MEG-01 (Chronic Myelogenous Leukemia); assay: as above
Summary of the method: as §1

[5] = system: SNG-M (Endometrial Carcinoma); assay: as above
Summary of the method: as §1

[6] = system: EKVX (Non-Small Cell Lung Carcinoma); assay: as above
Summary of the method: as §1

[7] = system: CS1 (Chondrosarcoma); assay: as above
Summary of the method: as §1

[8] = system: GDM-1 (Acute Myeloid Leukemia); assay: as above
Summary of the method: as §1

[9] = system: SK-MEL-1 (Melanoma); assay: as above
Summary of the method: as §1

[10] = system: NOMO-1 (Acute Myeloid Leukemia); assay: as above
Summary of the method: as §1

[11] = system: JHH-6 (Hepatocellular Carcinoma); assay: as above
Summary of the method: as §1

[12] = system: KG-1 (Acute Myeloid Leukemia); assay: as above
Summary of the method: as §1

[13] = system: TC-YIK (Other Solid Carcinomas); assay: as above
Summary of the method: as §1

[14] = system: FU-OV-1 (Ovarian Carcinoma); assay: as above
Summary of the method: as §1

[15] = system: TC-YIK (Other Solid Carcinomas); assay: combination Emax (second highest fraction inhibited in the dose matrix, 72 h); higher = more inhibition; extreme values may be limits of the assay
Summary of the method: as §1

[16] = system: FU-OV-1 (Ovarian Carcinoma); assay: as above
Summary of the method: as §1

SMILES: Cc1c2c(nn1C)CSCc1cc(n(C)n1)CSc1cc(c3ccccc3c1)OCCCc1c(C(=O)O)n(C)c3c-2c(Cl)ccc13 [AZD5991] + C[C@@H](Nc1cc(F)cc(F)c1)c1cc(C(=O)N(C)C)cc2c(=O)cc(N3CCOCC3)oc12 [AZD8186] (first compound max 1 µM, 7x7, partner max 3 µM)
- Bliss excess [1]: -0.0262
- Bliss excess [2]: -0.0221
- Bliss excess [3]: 0.0171
- Bliss excess [4]: 0.0019
- Bliss excess [5]: -0.0242
- Bliss excess [6]: 0.0062
- Bliss excess [7]: 0.0031
- Bliss excess [8]: 0.0355
- Bliss excess [9]: -0.0232
- Bliss excess [10]: 0.0361
- Bliss excess [11]: -0.0281
- Bliss excess [12]: 0.0031

SMILES: CCN(CCO)CCCOc1ccc2c(Nc3cc(CC(=O)Nc4cccc(F)c4)[nH]n3)ncnc2c1 [AZD2811] + C[C@@H]1COCCN1C2=NC(=NC(=C2)C3(CC3)[S@](=N)(=O)C)C4=C5C=CNC5=NC=C4 [AZD6738] (first compound max 1 µM, 7x7, partner max 10 µM)
- Bliss excess [1]: -0.0451
- Bliss excess [2]: -0.0627
- Bliss excess [3]: -0.0054
- Bliss excess [4]: -0.0203
- Bliss excess [5]: -0.0273
- Bliss excess [6]: -0.0558
- Bliss excess [7]: -0.0842
- Bliss excess [8]: -0.0749
- Bliss excess [9]: -0.0409
- Bliss excess [10]: -0.0118
- Bliss excess [11]: -0.0342
- Bliss excess [12]: -0.0332

SMILES: CCc1c2c(nc3ccc(O)cc13)-c1cc3c(c(=O)n1C2)COC(=O)[C@]3(O)CC [SN-38] + CN(C)CCCOc1ccc(-c2ccc3ncc4c(c3c2)n(C2CCOCC2)c(=O)n4C)cn1 [AZD0156] (first compound max 0.3 µM, 7x7, partner max 1 µM)
- Bliss excess [1]: 0.0191
- Bliss excess [2]: 0.0083
- Bliss excess [3]: -0.0222
- Bliss excess [4]: -0.0413
- Bliss excess [5]: -0.0353
- Bliss excess [6]: -0.0142
- Bliss excess [7]: -0.0016
- Bliss excess [8]: -0.0216
- Bliss excess [9]: -0.0583
- Bliss excess [10]: 0.034
- Bliss excess [11]: -0.0159
- Bliss excess [12]: -0.0585

SMILES: C=CCn1c(=O)c2cnc(Nc3ccc(N4CCN(C)CC4)cc3)nc2n1-c1cccc(C(C)(C)O)n1 [AZD1775] + C[C@@H]1COCCN1C2=NC(=NC(=C2)C3(CC3)[S@](=N)(=O)C)C4=C5C=CNC5=NC=C4 [AZD6738] (first compound max 1 µM, partner max 10 µM)
- Bliss excess [1]: -0.0105
- Bliss excess [2]: 0.0427
- Bliss excess [3]: 0.0326
- Bliss excess [4]: -0.0005
- Bliss excess [5]: -0.0128
- Bliss excess [6]: -0.0087
- Bliss excess [7]: 0.0087
- Bliss excess [8]: 0.0041
- Bliss excess [9]: -0.0125
- Bliss excess [10]: 0.0261
- Bliss excess [11]: -0.0073
- Bliss excess [12]: -0.0218

SMILES: CCc1c2c(nc3ccc(O)cc13)-c1cc3c(c(=O)n1C2)COC(=O)[C@]3(O)CC [SN-38] + O=C(c1cc(Cc2n[nH]c(=O)c3ccccc23)ccc1F)N1CCN(C(=O)C2CC2)CC1 [Olaparib] (first compound max 0.3 µM, 7x7, partner max 10 µM)
- Bliss excess [1]: 0.0327
- Bliss excess [2]: 0.0825
- Bliss excess [3]: 0.0337
- Bliss excess [4]: 0.026
- Bliss excess [5]: 0.0565
- Bliss excess [6]: 0.0027
- Bliss excess [7]: 0.0141
- Bliss excess [9]: 0.0387
- Bliss excess [10]: 0.0544
- Bliss excess [11]: 0.032

SMILES: C[C@@H](c1ccc2nccn2c1)n1nnc2ncc(-c3cnn(C)c3)nc21 [Savolitinib] + Cc1c2c(nn1C)CSCc1cc(n(C)n1)CSc1cc(c3ccccc3c1)OCCCc1c(C(=O)O)n(C)c3c-2c(Cl)ccc13 [AZD5991] (first compound max 1 µM, 7x7, partner max 1 µM)
- Bliss excess [1]: -0.0946
- Bliss excess [2]: -0.0544
- Bliss excess [3]: 0.0064
- Bliss excess [4]: -0.0308
- Bliss excess [5]: 0.0124
- Bliss excess [7]: -0.031
- Bliss excess [8]: -0.0004
- Bliss excess [9]: -0.0235
- Bliss excess [10]: 0.0497
- Bliss excess [11]: -0.0727
- Bliss excess [12]: -0.0383
- Bliss excess [13]: 0.003
- Bliss excess [14]: -0.056
- combination Emax [15]: 0.193
- combination Emax [16]: 0.204

SMILES: NC1(C(=O)N[C@@H](CCO)c2ccc(Cl)cc2)CCN(c2ncnc3[nH]ccc23)CC1 [Capivasertib] + CCN(CCO)CCCOc1ccc2c(Nc3cc(CC(=O)Nc4cccc(F)c4)[nH]n3)ncnc2c1 [AZD2811] (first compound max 10 µM, 7x7, partner max 1 µM)
- Bliss excess [1]: -0.0608
- Bliss excess [2]: -0.012
- Bliss excess [3]: -0.0412
- Bliss excess [4]: -0.0484
- Bliss excess [5]: -0.012
- Bliss excess [7]: -0.0211
- Bliss excess [8]: -0.0464
- Bliss excess [9]: 0.0563
- Bliss excess [10]: -0.0085
- Bliss excess [11]: -0.0301
- Bliss excess [12]: -0.0204
- Bliss excess [13]: -0.0415
- Bliss excess [14]: -0.0235
- combination Emax [15]: 0.95
- combination Emax [16]: 0.268

SMILES: COc1nnc2ccc(N3CCC(c4ccc(OCCN5CCN(C)C(=O)[C@H]5C)cc4)CC3)nn12 [AZD5153] + CCN(CCO)CCCOc1ccc2c(Nc3cc(CC(=O)Nc4cccc(F)c4)[nH]n3)ncnc2c1 [AZD2811] (first compound max 1 µM, 7x7, partner max 1 µM)
- Bliss excess [1]: -0.151
- Bliss excess [2]: -0.118
- Bliss excess [3]: 0.0116
- Bliss excess [4]: -0.047
- Bliss excess [5]: -0.0158
- Bliss excess [7]: -0.0284
- Bliss excess [8]: -0.0378
- Bliss excess [9]: -0.0295
- Bliss excess [10]: -0.0225
- Bliss excess [11]: -0.0683
- Bliss excess [12]: 0.0074
- Bliss excess [13]: -0.106
- Bliss excess [14]: -0.0571
- combination Emax [15]: 0.915
- combination Emax [16]: 0.691
